Test results reported in patent US8461083B2, “Herbicidal compounds” (Syngenta Limited, priority 2008, dated 2013).

Legend:
Type in all cases: in vivo
Solanum nigrum (SOLNI) [1] = experiment: Pre-emergence herbicidal glasshouse test; details: pre-emergence (sprayed after one day cultivation), evaluated after 13 days, 100=total damage to plant, 0=no damage to plant; for pest or weed control at 1000 g/ha: Solanum nigrum, 312 h, read-out: PRE Application SOLNI, damage to plant; for PRE Application SOLNI, damage to plant: 1000 g/ha
Summary of the method: (§1)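 Rates of 1000 g/ha are applied as an acetone/water (50:50) spray with 0.5% Tween 20 to soil-sown pots, pre-emergence at day 1 or post-emergence at day 8. Percent damage is assessed after 13 days.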

Setaria faberi (SETFA) [2] = experiment: Pre-emergence herbicidal glasshouse test; details: pre-emergence (sprayed after one day cultivation), evaluated after 13 days, 100=total damage to plant, 0=no damage to plant; for pest or weed control at 1000 g/ha: Setaria faberi, 312 h, read-out: PRE Application SETFA, damage to plant; for PRE Application SETFA, damage to plant: 1000 g/ha
Summary of the method: as §1

[3] = test system: Amaranthus retoflexus (AMARE); experiment: Pre-emergence herbicidal glasshouse test; details: pre-emergence (sprayed after one day cultivation), evaluated after 13 days, 100=total damage to plant, 0=no damage to plant; for pest or weed control at 1000 g/ha: Amaranthus retroflexus, 312 h, read-out: PRE Application AMARE, damage to plant; for PRE Application AMARE, damage to plant: 1000 g/ha
Summary of the method: as §1

[4] = test system: Alopecurus myosuroides (ALOMY); experiment: Pre-emergence herbicidal glasshouse test; details: pre-emergence (sprayed after one day cultivation), evaluated after 13 days, 100=total damage to plant, 0=no damage to plant; for pest or weed control at 1000 g/ha: Alopecurus myosuroides, 312 h, read-out: PRE Application ALOMY, damage to plant; for PRE Application ALOMY, damage to plant: 1000 g/ha
Summary of the method: as §1

[5] = test system: Echinochloa crus-galli (ECHCG); experiment: Pre-emergence herbicidal glasshouse test; details: pre-emergence (sprayed after one day cultivation), evaluated after 13 days, 100=total damage to plant, 0=no damage to plant; for pest or weed control at 1000 g/ha: Echinochloa crus-galli, 312 h, read-out: PRE Application ECHCG, damage to plant; for PRE Application ECHCG, damage to plant: 1000 g/ha
Summary of the method: (§2)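 Spray at 1000 g/ha, acetone/water 50:50 + 0.5% Tween 20; pre-em 1 d post-sowing, post-em 8 d post-sowing. Glasshouse 24/16 °C, 14 h light, 65% RH, watered twice daily. Visual damage score 0–100 at 13 d.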

Solanum nigrum (SOLNI) [6] = experiment: Post-emergence herbicidal glasshouse test; details: post-emergence (sprayed after 8 days cultivation), evaluated after 13 days, 100=total damage to plant, 0=no damage to plant; for pest or weed control at 1000 g/ha: Solanum nigrum, 312 h, read-out: POST Application SOLNI, damage to plant; for POST Application SOLNI, damage to plant: 1000 g/ha
Summary of the method: as §1

Setaria faberi (SETFA) [7] = experiment: Post-emergence herbicidal glasshouse test; details: post-emergence (sprayed after 8 days cultivation), evaluated after 13 days, 100=total damage to plant, 0=no damage to plant; for pest or weed control at 1000 g/ha: Setaria faberi, 312 h, read-out: POST Application SETFA, damage to plant; for POST Application SETFA, damage to plant: 1000 g/ha
Summary of the method: as §1

[8] = test system: Amaranthus retoflexus (AMARE); experiment: Post-emergence herbicidal glasshouse test; details: post-emergence (sprayed after 8 days cultivation), evaluated after 13 days, 100=total damage to plant, 0=no damage to plant; for pest or weed control at 1000 g/ha: Amaranthus retroflexus, 312 h, read-out: POST Application AMARE, damage to plant; for POST Application AMARE, damage to plant: 1000 g/ha
Summary of the method: as §1

[9] = test system: Alopecurus myosuroides (ALOMY); experiment: Post-emergence herbicidal glasshouse test; details: post-emergence (sprayed after 8 days cultivation), evaluated after 13 days, 100=total damage to plant, 0=no damage to plant; for pest or weed control at 1000 g/ha: Alopecurus myosuroides, 312 h, read-out: POST Application ALOMY, damage to plant; for POST Application ALOMY, damage to plant: 1000 g/ha
Summary of the method: as §1

[10] = test system: Echinochloa crus-galli (ECHCG); experiment: Post-emergence herbicidal glasshouse test; details: post-emergence (sprayed after 8 days cultivation), evaluated after 13 days, 100=total damage to plant, 0=no damage to plant; for pest or weed control at 1000 g/ha: Echinochloa crus-galli, 312 h, read-out: POST Application ECHCG, damage to plant; for POST Application ECHCG, damage to plant: 1000 g/ha
Summary of the method: as §2

SMILES	pest or weed control at 1000 g/ha (Solanum nigrum (SOLNI) [1]) [%]	pest or weed control at 1000 g/ha (Setaria faberi (SETFA) [2]) [%]	pest or weed control at 1000 g/ha [3] [%]	pest or weed control at 1000 g/ha [4] [%]	pest or weed control at 1000 g/ha [5] [%]	pest or weed control at 1000 g/ha (Solanum nigrum (SOLNI) [6]) [%]	pest or weed control at 1000 g/ha (Setaria faberi (SETFA) [7]) [%]	pest or weed control at 1000 g/ha [8] [%]	pest or weed control at 1000 g/ha [9] [%]	pest or weed control at 1000 g/ha [10] [%]	PRE Application SOLNI, damage to plant (Solanum nigrum (SOLNI) [1])	PRE Application SETFA, damage to plant (Setaria faberi (SETFA) [2])	PRE Application AMARE, damage to plant [3]	PRE Application ALOMY, damage to plant [4]	PRE Application ECHCG, damage to plant [5]	POST Application SOLNI, damage to plant (Solanum nigrum (SOLNI) [6])	POST Application SETFA, damage to plant (Setaria faberi (SETFA) [7])	POST Application AMARE, damage to plant [8]	POST Application ALOMY, damage to plant [9]	POST Application ECHCG, damage to plant [10]
Cc1nc2nc(C(F)(F)F)c(C(=O)C3C(=O)CCCC3=O)cc2c(C)c1F [Compound 1.88, 2-[5,7-dimethyl-6-fluoro-2-trifluoromethyl-[1,8]-naphthyridine-3-carbony]-cyclohexane-1,3-dione]	100	100	90	40	100	90	80	100	30	90										
Cc1ccc2cc(C(=O)C3C(=O)CCCC3=O)c(C(F)(F)Cl)nc2n1 [Compound 1.89, 2-[2-chlorodifluoromethyl-7-methyl [1,8]-naphthyridine-3-carbony]-cyclohexane-1,3-dione]											100	100	100	40	100	90	80	100	70	90
O=C1CCCC(=O)C1C(=O)c1cc2cc(F)c(NCC(F)(F)F)nc2nc1C(F)(F)F [Compound 1.90, 2-[6-fluoro-7-(2,2,2-trifluoroethylamino)-2-trifluoromethyl-[1,8]-naphthyridine-3-carbony]-cyclohexane-1,3-dione]	100	100	100	70	100	90	90	80	80	90										
Cc1nc2nc(C(F)(F)OCC(F)(F)F)c(C(=O)C3C(=O)CCCC3=O)cc2cc1F [Compound 1.91, 2-[6-fluoro-7-methyl-2[(2,2,2-trifluoroethoxy)difluoromethyl]-[1,8]-naphthyridine-3-carbony]-cyclohexane-1,3-dione]											100	90	100	10	100	90	80	90	40	80
O=C1CCCC(=O)C1C(=O)c1cc2cc(F)c(NC3CC3)nc2nc1C(F)(F)F [Compound 1.92, 2-[7-(cyclopropylamino)-6-fluoro-2-trifluoromethyl-[1,8]-naphthyridine-3-carbony]-cyclohexane-1,3-dione]											100	100	100	60	100	80	80	100	80	80
Cc1nc2nc(C(F)(F)C(F)(F)F)c(C(=O)C3C(=O)CCCC3=O)cc2cc1F [Compound 1.94]											90	100	100	20	100	90	80	100	60	80
CNc1nc2nc(C(F)(F)F)c(C(=O)C3C(=O)CCCC3=O)cc2cc1F [Compound 1.98, 2-[6-fluoro-7-methylamino-2-trifluoromethyl-[1,8]-naphthyridine-3-carbony]-cyclohexane-1,3-dione]	100	100	100	20	100	40	80	90	70	80										
O=C1CCCC(=O)C1C(=O)c1cc2ccc(Br)nc2nc1C(F)(F)F [Compound 1.99]	90	40	100	10	90	70	80	100	30	80										
COCc1nc2nc(C(F)(F)F)ccc2cc1C(=O)C1C(=O)CCCC1=O [Compound 1.100, 2-[2-(methoxymethyl)-7-trifluoromethyl-[1,8]-naphthyridine-3-carbony]-cyclohexane-1,3-dione]											100	100	100	20	100	80	80	90	40	80
CCOC(F)(F)c1nc2nc(C)c(F)cc2cc1C(=O)C1C(=O)CCCC1=O [Compound 1.102, 2-[2-(Ethoxydifluoromethyl)-6-fluoro-7-methyl-[1,8]-naphthyridine-3-carbonyl]-cyclohexane-1,3-dione]	100	100	100	30	90	60	80	90	60	80										
C#CCNc1nc2nc(C(F)(F)F)c(C(=O)C3C(=O)CCCC3=O)cc2cc1F [Compound 1.103]											100	100	80	40	100	90	90	80	70	80
CCc1nc2nc(C(F)(F)F)ccc2cc1C(=O)C1C(=O)CCCC1=O [Compound 1.107, 2-[2-ethyl-7-trifluoromethyl-[1,8]-naphthyridine-3-carbony]-cyclohexane-1,3-dione]	90	100	100	30	100	100	90	100	50	80										
